ChEMBL document CHEMBL1158860, “New Diosgenin Glycosides from Costus afer” (J Nat Prod, 1997)
Activity calls are given as the source filed them. The rule behind the calls is not given here.

These compounds were tested on HL-60 (assay: Potentiation of cisplatin cytotoxicity against human HL60 cells).
Type: functional, cell-based

SMILES	Activity
C[C@@H]1CC[C@@]2(OC1)O[C@H]1C[C@H]3[C@@H]4CC=C5C[C@@H](O[C@@H]6O[C@H](CO)[C@@H](O[C@@H]7O[C@@H](C)[C@H](O)[C@@H](O)[C@H]7O)[C@H](O)[C@H]6O[C@@H]6O[C@@H](C)[C@H](O)[C@@H](O)[C@H]6O)CC[C@]5(C)[C@H]4CC[C@]3(C)[C@H]1[C@@H]2C	inactive
CC(=O)O[C@@H]1[C@@H](O)[C@@H](O)[C@H](O[C@H]2[C@H](O[C@H]3CC[C@@]4(C)C(=CC[C@H]5[C@@H]6C[C@@H]7O[C@]8(CC[C@@H](C)CO8)[C@@H](C)[C@@H]7[C@@]6(C)CC[C@@H]54)C3)O[C@H](CO)[C@@H](O[C@@H]3OC[C@](O)(CO)[C@H]3O)[C@@H]2O)O[C@H]1C	inactive
C[C@@H]1CC[C@@]2(OC1)O[C@H]1C[C@H]3[C@@H]4CC=C5C[C@@H](O[C@@H]6O[C@H](CO)[C@@H](O[C@@H]7OC[C@](O)(CO)[C@H]7O)[C@H](O)[C@H]6O[C@@H]6O[C@@H](C)[C@H](O)[C@@H](O)[C@H]6O)CC[C@]5(C)[C@H]4CC[C@]3(C)[C@H]1[C@@H]2C	inactive
C[C@@H]1CC[C@@]2(OC1)O[C@H]1C[C@H]3[C@@H]4CC=C5C[C@@H](O[C@@H]6O[C@H](CO)[C@@H](O[C@@H]7OC[C@](O)(CO)[C@H]7O)[C@H](O)[C@H]6O)CC[C@]5(C)[C@H]4CC[C@]3(C)[C@H]1[C@@H]2C	inactive
